Assay results: patent US20220315587A1, “COMPOUNDS FOR TREATMENT OF CANCER” (SINOPSEE THERAPEUTICS, priority 2019, published 2022)

Columns and labels:
[1] = system: PDGFRβ signaling (PDGFRβ autophosphorylation, Shp2 phosphorylation) in HEK293 cells expressing human PDGFR; experiment: Western blot of PDGFRβ signaling in HEK293 cell line model; type: cell-based; settings: 20 ng/ml PDGF, FIG. 1
Procedure: FIG. 1 represents Western-blot analysis result of the compounds of Examples 1 and 2 in relation to inhibition of PDGFRβ and p-SHP2 signalling in HEK293 cells expressing PDGFRβ.
Human Embryonic kidney cells (HEK293) were constructed to express human PDGFRWT under the control of constitutive CMV promoter. Cells were grown in the presence of 20 ng/ml PDGF (the ligand for the PDGFRβ) to activate the PDGFRβ. Different concentrations of the compounds of Examples 1 and 2 were added to study their effect on the PDGFRβ-mediated signaling. Autophosphorylation of PDGFRβ and Shp2 phosphorylation were monitored by Western blotting and were used as the markers for PDGFRβ signaling. β-Actin was used as an internal control.

[2] = system: BA/F3 cells expressing PDGFR; experiment: Cell viability by MTS assay (MTS Assay 1); type: cell-based; settings: for Activity compared to the imatinib and quizartinib controls (cell viability): MTS assay, FIGS. 2 and 3; for IC50: Mus musculus, BaF3, read-out: MTS Assay 1: concentration of compound required to reduce cell viability to 50%
Procedure: FIG. 2 illustrates the effect of the compounds of Examples 1 to 4 on Ba/F3 cells expressing PDGFR. Results for imatinib and quizartinib are provided as positive controls.
(§1) The effect of the compounds on cell viability were determined using MTS assay. MTS Cell Proliferation Assay Kit is a colorimetric method for sensitive quantification of viable cells in proliferation and cytotoxicity assay. The method is based on the reduction of MTS tetrazolium compound by viable cells to generate a colored formazan product that is soluble in cell culture media. BA/F3 cells expressing the receptor tyrosine kinase (either PDGFR [MTS Assay 1] or Flt3 [MTS Assay 2]) were cultured in standard culture conditions in a 96-well microtiter plate (final volume of 200 μl/well) in the absence or presence of the compound to be tested and were incubated for 20-48 hrs. MTS Reagent (20 μl/well) was added into each well & incubated for 0.5-4 hours at 37° C. in standard culture conditions. Absorbance at 490 nm was recorded using a plate reader.
(§2) Results are shown in FIGS. 2 and 3, and Table 2 (where IC50 indicates the concentration of compound required to reduce cell viability to 50%).
(§3) For the MTS Assay, the result indicates the concentration of compound required to reduce cell viability to 50%.

[3] = molecular target: T1, BA/F3 cells expressing Flt3 (Homo sapiens, UniProt P36888, cells depend on it, form not given); experiment: Cell viability by MTS assay (MTS Assay 2); type: cell-based; settings: BA/F3 cells expressing Flt3, 20-48 hrs; symbol after the slash; read-out: MTS Assay 2: concentration of compound required to reduce cell viability to 50%
T1 sequence (P36888 1-993): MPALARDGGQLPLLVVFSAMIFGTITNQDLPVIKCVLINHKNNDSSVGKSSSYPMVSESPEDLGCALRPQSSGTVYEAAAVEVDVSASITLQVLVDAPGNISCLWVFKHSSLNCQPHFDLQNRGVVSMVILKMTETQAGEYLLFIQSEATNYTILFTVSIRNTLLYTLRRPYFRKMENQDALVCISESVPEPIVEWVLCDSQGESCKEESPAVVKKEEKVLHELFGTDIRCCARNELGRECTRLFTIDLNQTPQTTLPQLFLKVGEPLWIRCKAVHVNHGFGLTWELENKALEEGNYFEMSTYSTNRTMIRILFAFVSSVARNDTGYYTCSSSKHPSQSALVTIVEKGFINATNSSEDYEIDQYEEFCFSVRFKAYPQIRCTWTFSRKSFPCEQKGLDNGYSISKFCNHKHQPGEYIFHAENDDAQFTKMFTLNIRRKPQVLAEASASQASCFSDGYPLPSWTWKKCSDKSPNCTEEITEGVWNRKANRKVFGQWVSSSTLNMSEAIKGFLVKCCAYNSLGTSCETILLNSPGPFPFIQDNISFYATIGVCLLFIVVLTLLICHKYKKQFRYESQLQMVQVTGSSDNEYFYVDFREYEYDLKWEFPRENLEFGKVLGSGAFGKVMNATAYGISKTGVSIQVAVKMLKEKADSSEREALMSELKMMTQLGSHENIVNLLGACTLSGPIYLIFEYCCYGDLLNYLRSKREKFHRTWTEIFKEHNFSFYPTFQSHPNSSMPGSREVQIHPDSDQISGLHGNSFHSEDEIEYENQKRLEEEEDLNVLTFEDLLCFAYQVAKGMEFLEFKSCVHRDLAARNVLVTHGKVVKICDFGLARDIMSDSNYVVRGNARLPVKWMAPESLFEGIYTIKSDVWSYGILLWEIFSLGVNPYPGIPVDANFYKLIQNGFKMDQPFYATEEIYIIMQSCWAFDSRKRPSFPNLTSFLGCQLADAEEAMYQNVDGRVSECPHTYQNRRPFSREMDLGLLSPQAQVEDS
Procedure: FIG. 3 illustrates the effect of the compounds of Examples 5 to 7 on Ba/F3 cells expressing Flt3 kinase. Results for imatinib (negative control) and quizartinib (positive control) are also provided.
as §1, §2, §3

[4] = molecular target: T2, Flt3 (Homo sapiens, UniProt P36888); experiment: In vitro kinase assay ([γ-33P]-ATP); type: biochemical; settings: ATP at apparent ATP-Km of the kinase
T2 sequence (P36888 27-993): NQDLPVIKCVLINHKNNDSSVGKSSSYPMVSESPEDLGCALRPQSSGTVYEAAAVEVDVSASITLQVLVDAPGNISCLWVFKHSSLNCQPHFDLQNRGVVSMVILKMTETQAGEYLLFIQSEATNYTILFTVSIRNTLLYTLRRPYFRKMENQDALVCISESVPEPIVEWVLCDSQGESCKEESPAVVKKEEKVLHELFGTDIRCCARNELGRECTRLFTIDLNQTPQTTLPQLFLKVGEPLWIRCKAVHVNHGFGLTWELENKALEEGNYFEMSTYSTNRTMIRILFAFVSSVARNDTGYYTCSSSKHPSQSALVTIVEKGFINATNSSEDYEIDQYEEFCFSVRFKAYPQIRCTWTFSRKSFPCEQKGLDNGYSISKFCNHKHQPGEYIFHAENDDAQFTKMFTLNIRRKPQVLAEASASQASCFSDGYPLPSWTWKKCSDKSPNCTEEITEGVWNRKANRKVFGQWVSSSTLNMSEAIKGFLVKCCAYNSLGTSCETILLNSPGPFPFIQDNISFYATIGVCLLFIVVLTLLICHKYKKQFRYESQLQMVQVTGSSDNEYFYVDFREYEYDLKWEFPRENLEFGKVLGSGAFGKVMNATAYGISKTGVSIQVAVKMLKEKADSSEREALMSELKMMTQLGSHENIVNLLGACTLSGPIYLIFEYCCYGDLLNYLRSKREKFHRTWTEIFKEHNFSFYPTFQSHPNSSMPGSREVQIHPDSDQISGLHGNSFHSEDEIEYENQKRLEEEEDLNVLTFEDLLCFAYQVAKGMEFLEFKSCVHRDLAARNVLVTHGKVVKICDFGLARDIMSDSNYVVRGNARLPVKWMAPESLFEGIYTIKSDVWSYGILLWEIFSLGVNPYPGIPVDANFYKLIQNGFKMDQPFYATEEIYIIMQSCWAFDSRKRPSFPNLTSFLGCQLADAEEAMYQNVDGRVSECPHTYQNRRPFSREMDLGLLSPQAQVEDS
Procedure: (§4) To determine the inhibitory activity of compounds, in vitro kinase assays were performed on respective enzymes purified from Sf9 insect cells or E. coli as recombinant GST-fusion proteins or His-tagged proteins.

[5] = molecular target: CDK19 (Homo sapiens, UniProt Q9BWU1); experiment: In vitro kinase assay ([γ-33P]-ATP); type: biochemical; settings: ATP at apparent ATP-Km of the kinase
Procedure: as §4

[6] = molecular target: CDK8 (Homo sapiens, UniProt P49336); experiment: In vitro kinase assay ([γ-33P]-ATP); type: biochemical; settings: ATP at apparent ATP-Km of the kinase
Procedure: as §4

[7] = molecular target: PDGFR-α (Homo sapiens, UniProt P16234); experiment: In vitro kinase assay ([γ-33P]-ATP); type: biochemical; settings: ATP at apparent ATP-Km of the kinase
Procedure: as §4

[8] = molecular target: PDGFR-β (Homo sapiens, UniProt P09619); experiment: In vitro kinase assay ([γ-33P]-ATP); type: biochemical; settings: ATP at apparent ATP-Km of the kinase
Procedure: as §4

[9] = molecular target: VEGFR-2 (Homo sapiens, UniProt P35968); experiment: In vitro kinase assay ([γ-33P]-ATP); type: biochemical; settings: ATP at apparent ATP-Km of the kinase
Procedure: as §4

Sequence of CDK8 (P49336 whole entry): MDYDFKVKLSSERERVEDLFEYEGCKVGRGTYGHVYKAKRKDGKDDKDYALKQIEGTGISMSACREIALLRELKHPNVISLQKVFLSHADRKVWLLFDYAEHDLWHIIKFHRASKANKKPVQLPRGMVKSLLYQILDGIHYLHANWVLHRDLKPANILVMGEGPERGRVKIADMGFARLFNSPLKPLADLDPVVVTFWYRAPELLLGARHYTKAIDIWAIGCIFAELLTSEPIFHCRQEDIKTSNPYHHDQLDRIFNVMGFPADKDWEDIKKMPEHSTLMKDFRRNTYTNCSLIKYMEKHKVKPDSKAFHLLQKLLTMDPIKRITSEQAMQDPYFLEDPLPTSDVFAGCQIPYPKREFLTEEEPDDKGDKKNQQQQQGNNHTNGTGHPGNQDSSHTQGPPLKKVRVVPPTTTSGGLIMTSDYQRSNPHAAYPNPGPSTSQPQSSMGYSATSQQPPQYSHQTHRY
Sequence of CDK8 (P24863 whole entry partner): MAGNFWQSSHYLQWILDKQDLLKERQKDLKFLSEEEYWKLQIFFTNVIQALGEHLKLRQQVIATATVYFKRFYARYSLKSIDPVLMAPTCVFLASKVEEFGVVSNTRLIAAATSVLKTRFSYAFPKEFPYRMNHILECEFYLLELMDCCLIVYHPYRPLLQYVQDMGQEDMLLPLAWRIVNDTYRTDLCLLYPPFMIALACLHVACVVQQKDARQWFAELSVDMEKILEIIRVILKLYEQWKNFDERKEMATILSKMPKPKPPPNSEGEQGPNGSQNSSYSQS
Sequence of PDGFR-α (P16234 24-1089): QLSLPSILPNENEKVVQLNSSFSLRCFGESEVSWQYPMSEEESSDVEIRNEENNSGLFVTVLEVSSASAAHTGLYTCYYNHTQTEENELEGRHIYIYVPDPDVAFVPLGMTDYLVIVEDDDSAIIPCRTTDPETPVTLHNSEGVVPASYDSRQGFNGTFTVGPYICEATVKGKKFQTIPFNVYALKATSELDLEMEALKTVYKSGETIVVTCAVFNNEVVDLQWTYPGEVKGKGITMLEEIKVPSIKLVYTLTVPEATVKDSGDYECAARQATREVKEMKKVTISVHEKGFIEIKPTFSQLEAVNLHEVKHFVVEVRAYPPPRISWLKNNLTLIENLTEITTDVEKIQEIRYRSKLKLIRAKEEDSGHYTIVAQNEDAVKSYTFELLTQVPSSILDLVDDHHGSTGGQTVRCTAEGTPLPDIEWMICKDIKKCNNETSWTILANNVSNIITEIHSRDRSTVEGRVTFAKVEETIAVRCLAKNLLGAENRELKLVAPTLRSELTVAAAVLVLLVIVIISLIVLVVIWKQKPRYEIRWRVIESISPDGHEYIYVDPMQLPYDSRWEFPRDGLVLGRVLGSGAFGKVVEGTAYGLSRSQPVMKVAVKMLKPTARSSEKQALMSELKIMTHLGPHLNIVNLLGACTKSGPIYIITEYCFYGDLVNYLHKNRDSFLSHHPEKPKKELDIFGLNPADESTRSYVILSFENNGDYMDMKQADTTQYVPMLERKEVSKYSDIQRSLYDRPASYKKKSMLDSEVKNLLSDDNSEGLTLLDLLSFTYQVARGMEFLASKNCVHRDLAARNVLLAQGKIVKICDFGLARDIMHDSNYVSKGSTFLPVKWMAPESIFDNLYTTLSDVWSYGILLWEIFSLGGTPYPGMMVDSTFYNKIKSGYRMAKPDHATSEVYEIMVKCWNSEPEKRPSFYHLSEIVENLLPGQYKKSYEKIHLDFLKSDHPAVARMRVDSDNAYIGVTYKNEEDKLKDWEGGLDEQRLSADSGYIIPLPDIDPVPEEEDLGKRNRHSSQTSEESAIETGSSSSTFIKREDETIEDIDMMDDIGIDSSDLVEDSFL
Sequence of CDK19 (Q9BWU1 whole entry): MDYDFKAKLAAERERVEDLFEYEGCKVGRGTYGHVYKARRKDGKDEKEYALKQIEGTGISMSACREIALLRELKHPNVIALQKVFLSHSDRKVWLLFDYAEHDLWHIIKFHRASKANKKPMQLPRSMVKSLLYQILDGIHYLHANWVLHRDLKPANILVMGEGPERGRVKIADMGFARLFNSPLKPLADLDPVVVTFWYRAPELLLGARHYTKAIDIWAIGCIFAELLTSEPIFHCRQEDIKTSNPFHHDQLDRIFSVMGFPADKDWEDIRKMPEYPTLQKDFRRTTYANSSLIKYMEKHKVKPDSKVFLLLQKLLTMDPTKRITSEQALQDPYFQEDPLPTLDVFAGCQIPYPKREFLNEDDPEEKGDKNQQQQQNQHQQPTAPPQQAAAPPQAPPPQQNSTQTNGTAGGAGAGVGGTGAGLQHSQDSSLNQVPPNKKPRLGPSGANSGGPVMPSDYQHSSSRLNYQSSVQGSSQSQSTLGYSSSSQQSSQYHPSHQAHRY
Sequence of CDK19 (P24863 whole entry partner): as the sequence (P24863 whole entry partner) above
Sequence of PDGFR-β (P09619 33-1106): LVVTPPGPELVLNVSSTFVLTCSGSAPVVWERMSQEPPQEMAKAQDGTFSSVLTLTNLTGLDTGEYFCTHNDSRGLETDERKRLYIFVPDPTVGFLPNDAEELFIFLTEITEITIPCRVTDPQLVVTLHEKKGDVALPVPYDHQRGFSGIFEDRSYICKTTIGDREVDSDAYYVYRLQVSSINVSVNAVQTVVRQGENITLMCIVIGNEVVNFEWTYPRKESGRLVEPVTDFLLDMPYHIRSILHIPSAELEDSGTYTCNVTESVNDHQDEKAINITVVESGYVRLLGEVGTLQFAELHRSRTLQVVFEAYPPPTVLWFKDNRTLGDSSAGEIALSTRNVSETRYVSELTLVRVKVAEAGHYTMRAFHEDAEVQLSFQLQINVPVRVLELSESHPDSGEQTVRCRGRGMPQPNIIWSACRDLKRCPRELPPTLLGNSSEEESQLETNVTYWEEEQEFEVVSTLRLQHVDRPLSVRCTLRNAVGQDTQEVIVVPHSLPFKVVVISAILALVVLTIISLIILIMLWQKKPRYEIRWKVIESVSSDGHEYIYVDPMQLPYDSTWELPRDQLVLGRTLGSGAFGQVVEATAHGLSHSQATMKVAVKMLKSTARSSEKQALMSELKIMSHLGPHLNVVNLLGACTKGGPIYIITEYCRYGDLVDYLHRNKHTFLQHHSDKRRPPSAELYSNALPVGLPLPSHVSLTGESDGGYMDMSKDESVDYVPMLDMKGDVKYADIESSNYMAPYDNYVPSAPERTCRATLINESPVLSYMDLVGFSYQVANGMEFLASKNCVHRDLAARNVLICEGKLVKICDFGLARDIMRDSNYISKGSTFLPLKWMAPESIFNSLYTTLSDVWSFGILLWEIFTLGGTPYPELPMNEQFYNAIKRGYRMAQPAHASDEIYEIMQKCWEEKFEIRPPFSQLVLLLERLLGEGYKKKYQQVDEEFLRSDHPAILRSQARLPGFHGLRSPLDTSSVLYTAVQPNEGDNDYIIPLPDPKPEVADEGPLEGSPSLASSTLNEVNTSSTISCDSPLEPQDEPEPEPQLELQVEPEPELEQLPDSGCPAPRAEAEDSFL
Sequence of VEGFR-2 (P35968 20-1356): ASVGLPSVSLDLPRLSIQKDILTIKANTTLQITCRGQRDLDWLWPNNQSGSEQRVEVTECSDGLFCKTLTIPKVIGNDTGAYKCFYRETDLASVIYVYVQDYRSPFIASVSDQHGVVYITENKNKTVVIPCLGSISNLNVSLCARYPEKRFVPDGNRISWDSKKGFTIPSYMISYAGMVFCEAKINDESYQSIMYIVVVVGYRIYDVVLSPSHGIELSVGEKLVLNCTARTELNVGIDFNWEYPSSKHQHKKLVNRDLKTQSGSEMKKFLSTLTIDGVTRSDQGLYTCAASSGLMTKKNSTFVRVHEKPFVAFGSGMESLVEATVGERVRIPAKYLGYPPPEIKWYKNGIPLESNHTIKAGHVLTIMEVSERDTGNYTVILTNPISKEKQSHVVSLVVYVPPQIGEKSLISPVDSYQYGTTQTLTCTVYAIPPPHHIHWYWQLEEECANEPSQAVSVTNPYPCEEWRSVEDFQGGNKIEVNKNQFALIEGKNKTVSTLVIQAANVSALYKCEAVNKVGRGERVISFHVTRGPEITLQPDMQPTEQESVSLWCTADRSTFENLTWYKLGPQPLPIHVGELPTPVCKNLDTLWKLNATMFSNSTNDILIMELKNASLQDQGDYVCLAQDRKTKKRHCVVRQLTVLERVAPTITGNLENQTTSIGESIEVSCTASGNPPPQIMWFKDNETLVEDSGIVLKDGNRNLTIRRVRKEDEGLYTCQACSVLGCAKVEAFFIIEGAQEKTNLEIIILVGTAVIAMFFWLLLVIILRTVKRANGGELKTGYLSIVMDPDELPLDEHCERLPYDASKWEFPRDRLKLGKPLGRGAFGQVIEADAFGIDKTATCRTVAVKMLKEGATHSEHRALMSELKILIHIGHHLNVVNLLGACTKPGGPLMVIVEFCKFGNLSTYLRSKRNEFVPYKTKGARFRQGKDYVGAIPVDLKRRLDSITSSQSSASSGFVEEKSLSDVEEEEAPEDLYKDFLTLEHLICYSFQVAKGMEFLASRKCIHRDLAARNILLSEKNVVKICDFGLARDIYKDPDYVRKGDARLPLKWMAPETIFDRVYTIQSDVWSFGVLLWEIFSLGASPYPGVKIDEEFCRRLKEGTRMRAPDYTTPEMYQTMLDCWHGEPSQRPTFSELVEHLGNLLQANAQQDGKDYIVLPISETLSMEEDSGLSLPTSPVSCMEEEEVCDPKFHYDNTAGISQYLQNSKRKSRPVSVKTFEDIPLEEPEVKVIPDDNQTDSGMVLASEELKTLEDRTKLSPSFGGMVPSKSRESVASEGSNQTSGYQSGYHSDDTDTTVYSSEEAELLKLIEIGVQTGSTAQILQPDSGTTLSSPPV

IC50 [5] | IC50 [6] | IC50 [7] | IC50 [8] | IC50 [9] | Compound | Inhibition of PDGFRβ signaling (PDGFRβ autophosphorylation and Shp2 phosphorylation, Western blot) [1] | Activity compared to the imatinib and quizartinib controls (cell viability) [2] | IC50 [3] | IC50 [2] | IC50 [4]
 |  |  |  |  | Cn1nc(NC(=O)COc2ccc(-c3cnc4ccccn34)cn2)cc1C(F)(F)F [Example 1] | able to inhibit PDGFRβ signaling | improved activity | < 500 nM |  | 
 |  |  |  |  | Cc1ccc(NC(=O)COc2ccc(-c3cnc4ccccn34)cn2)cc1C(F)(F)F [Example 2] | able to inhibit PDGFRβ signaling |  |  | < 500 nM | < 500 nM
 |  |  |  |  | Cc1ccc(NC(=O)COc2ccc(-c3cnc4cnccn34)c(F)n2)cc1C(F)(F)F [Example 7] |  |  | < 500 nM |  | 
 |  |  |  |  | Cn1nc(NC(=O)COc2ccc(-c3cnc4cnccn34)cn2)cc1C(F)(F)F [Example 9] |  |  |  | < 500 nM | 
 |  |  |  |  | Cc1ccc(NC(=O)CNc2ccc(-c3cnc4cnccn34)cc2)cc1C(F)(F)F [Example 15] |  |  | < 500 nM |  | 
< 500 nM | < 500 nM | > 5000 nM | > 5000 nM | > 5000 nM | O=C(Nc1ccc(-c2cnc3cnccn23)cc1)C1(C(=O)Nc2cc(C(F)(F)F)c(Cl)cn2)CC1 [Example 20] |  |  |  |  | > 5000 nM
< 500 nM | < 500 nM | > 5000 nM | > 5000 nM | > 5000 nM | Cn1nc(NC(=O)C2(C(=O)Nc3ccc(-c4cnc5cnccn45)cc3)CC2)cc1C(F)(F)F [Example 21] |  |  |  |  | > 5000 nM
< 500 nM | < 500 nM | > 5000 nM | > 5000 nM | 500 to 5000 nM | Cn1nc(NC(=O)C2(C(=O)Nc3ccc(-c4cnc5cnccn45)c(F)c3)CC2)cc1C(F)(F)F [Example 22] |  |  |  |  | > 5000 nM

Compound | IC50 [5] | IC50 [6] | IC50 [7] | IC50 [8] | IC50 [9] | Inhibition of PDGFRβ signaling (PDGFRβ autophosphorylation and Shp2 phosphorylation, Western blot) [1] | Activity compared to the imatinib and quizartinib controls (cell viability) [2] | IC50 [3] | IC50 [2] | IC50 [4]
Cc1cnc(NC(=O)COc2ccc(-c3cnc4cnccn34)cn2)cc1C(F)(F)F [Example 3] | < 500 nM | < 500 nM | < 500 nM | < 500 nM | < 500 nM |  | improved activity |  | < 500 nM | < 500 nM
Cc1cnc(NC(=O)COc2ccc(-c3cnc4ccccn34)cn2)cc1C(F)(F)F [Example 8] | < 500 nM | < 500 nM | < 500 nM | < 500 nM | < 500 nM |  |  |  | < 500 nM | < 500 nM
